Like-named read-outs stand apart in the source and are kept apart here.
Legend:
Rice [1] = assay: Intermediate Retardant Test, rice; format: in vivo, Rice (Ishikari); details: Oryza sativa, 672 h, ~28 days, read-out: Percentage Reduction in Height of Rice (Compared to formulation blank)
Description: (§1) Three species are involved in this test RICE, SPRING-BARLEY and APPLES. The variety and growth stages at spray are outlined in Table VI. Compounds were applied at 1000 ppm and 4000 ppm respectively (1 kg and 4 kg ha^-1 at a field volume of 1000 l/ha^-1) as an overall spray. This gives a foliar and root component in the test, i.e. this test will detect the activity of both root and foliar acting compounds. The rice was grown in 4" `paddy` pots, i.e. the roots and bottom of the stems are immersed in water under conditions corresponding to those in paddy fields. Spring barley and apples were grown in 4" pots. The plants were assessed for height to top-most ligule at approximately 28 days after treatment for spring barley and rice and for height to apex at approximately 28 days after the treatment for apples. In each case the result for the 1000 ppm and 4000 ppm test for each compound is compared to the height of the formulation blank in that test, presented as a percentage reduction in height compared to the formulation blank.
as §1, with “in Table XIV. Compounds were” for “in Table VI. Compounds were”, “that test, and presented as” for “that test, presented as”

Vines = details: VN, 4000 ppm, 2-3 weeks
Spring Barley = assay: Intermediate Retardant Test, spring barley; format: in vivo, Spring Barley (Atem/kym); details: Hordeum vulgare, 672 h, ~28 days, read-out: Percentage Reduction in Height of Spring Barley (Compared to formulation blank)
Description: as §1
as §1, with “in Table XIV. Compounds were” for “in Table VI. Compounds were”, “that test, and presented as” for “that test, presented as”

[2] = test system: plant species of Whole Plant Screen (1) or (2); assay: Across screen comparison: total retardation relative to paclobutrazol (Whole Plant Screens (1) and (2)); format: in vivo; details: for Total Retardation expressed as a percentage of the total retardation caused by paclobutrazol: compounds of Table I, Table X
From the text: The following Example is a general indicative comparison of compounds from EP No. 0052424 with compounds from the preferred class in the present invention. The compounds have not been side-by-side tested on this Example because of the large numbers involved but the retardant activity can be compared using a standard which has been on each test.
The compounds which are compared in this Example have been tested on one of two tests. These are the Whole Plant Screen (1) and Whole Plant Screen (2) the methods for which are described in Examples 17 and 18 respectively.
An across screen comparison between compounds is made by expressing the total retardation (ie. sum of retardation scores recorded for each species tested) caused by the compound as a percentage of the total retardation caused by the standard in that test. The standard chemical gives a measure of the performance of the test and environmental factors. By expressing the test compound activity as a percentage of the standard compound activity these factors can be eliminated . The same standard has been used in every test and this is paclobutrazol a proprietory growth regulator.

Rice [3] = assay: Whole Plant Screen (2), rice; format: in vivo, Rice (Ishikari); details: RC, 4000 ppm
Description: (§2) After 2-6 weeks in the glasshouse, depending on the time of year, the plants were visually assessed for morphological characteristics. Formulation blanks were used as controls to assess the plants.
(§3) Compound numbers 1, 5 and 7 (of the present invention) were tested against compounds A, B, C and D (compound Nos. 12, 2, 24 and 50 of Table 1 EP No. 0052424) on whole plant screen (2). The compounds were tested of plant growth regulator activity against five species and for various growth effects relevant to plant growth regulation. The structures are set out in FIG. 1.
(§4) The plant species used in this screen are presented in Table XII with the leaf stage at which they were sprayed Each chemical was applied at 4000 ppm (4 kg/ha in a 1000 l/ha field volume) using a tracksprayer and a SS8004E (Teejet) nozzle. […]

Apples = assay: Intermediate Retardant Test, apples; format: in vivo, Apples (Red Delicious); details: 672 h, ~28 days, read-out: Percentage Reduction in Height of Apples (Compared to formulation blank)
Description: as §1
as §1, with “in Table XIV. Compounds were” for “in Table VI. Compounds were”, “that test, and presented as” for “that test, presented as”

Agrostis tenius = details: AT, 4000 ppm, 2-3 weeks
Description: (§7) The compounds were tested for plant growth regulator activity against up to tweleve plant species for various growth effects relevant to plant growth regulation.
(§8) After spray, the plants were grown in a glasshouse with 25° C. day/22° C. night temperatures and supplementary lighting was supplied when necessary (from mercury vapour lamps), to provide a 16 hour photoperiod. The exception to this were the temperate cereals, wheat and barley, which were grown in 16° C. day 13° C. night temperatures
(§9) After 2-3 weeks in the glasshouse, depending on the time of year, the plants were visually assessed for morphological characteristics. Formulations blanks were used as controls to assess the Plants.

Wheat [4] = details: WW, 4000 ppm, 2-3 weeks
Soya = details: SY, 4000 ppm, 2-3 weeks
Description: as §7, §8, §9

Lettuce = details: LT, 4000 ppm, 2-3 weeks
Description: as §7, §8, §9

Cynosurus cristatus = details: CC, 4000 ppm, 2-3 weeks
Description: as §7, §8, §9

Wheat [5] = assay: Whole Plant Screen (2), wheat; format: in vivo, Wheat (Timmo); details: WW, 4000 ppm
Description: (§5) Compound numbers 12-13, 16-17 and 19-20 were tested on an alternative whole plant screen (2). The compounds were tested for plant growth regulator activity against five species for various growth effects relevant to plant growth regulation.
The plant species used in this screen are presented in Table IV with the leaf stage at which they were sprayed. Each chemical was applied at 4000 ppm (4 kg/ha in a 1000 l/ha field volume) using a tracksprayer and a SS8004E (Teejet) nozzle. […]
After 2-6 weeks in the glasshouse, depending on the time of year, the plants were visually assessed for morphological characteristics. Formulation blanks were used as controls to assess the plants. […]

Tomato = details: TO, 4000 ppm, 2-3 weeks
Description: as §7, §8, §9

Barley [6] = details: BR, 4000 ppm, 2-3 weeks
Description: as §7, §8, §9

Dacrylis glomerata = details: DA, 4000 ppm, 2-3 weeks
Description: as §7, §8, §9

Barley [7] = assay: Whole Plant Screen (2), barley; format: in vivo, Barley (Atem); details: BR, 4000 ppm, 2-6 weeks, Table V
Description: as §3, §4

Maize = assay: Whole Plant Screen (2), maize; format: in vivo, Maize (Earliking); details: MZ, 4000 ppm, 2-6 weeks, Table V
Description: as §5
The plant species used in this screen are presented in Table IV with the leaf stage at which they were sprayed. Each chemical was applied at 4000 ppm (4 kg/ha in a 1000 l/ha field volume) using a tracksprayer and a SS8004E (Teejet) nozzle.
(§6) After spray the plants were grown in a glasshouse with 25° C. day 22° C. night temperatures and supplementary lighting was supplied when necessary (from mercury vapour lamps), to provide a 16 hour photoperiod. The exception to this were the temperate cereals, wheat and barley which were grown in 16° C. day 13° C. night temperatures.
as §2, §3
The plant species used in this screen are presented in Table XII with the leaf stage at which they were sprayed Each chemical was applied at 4000 ppm (4 kg/ha in a 1000 l/ha field volume) using a tracksprayer and a SS8004E (Teejet) nozzle.
as §6, with “day/22°” for “day 22°”, “day/13°” for “day 13°”

CC(C)(C)C#CC(O)(Cn1cncn1)C(C)(C)C (stereo not drawn) [Compound 5, 2,2-dimethyl-3-hydroxy-3-(3,3-dimethyl-but-1-yne-1-yl)-4-(1,2,4-triazol-1-yl)-butane]
Percent reduction in rice plant height vs formulation blank at 1000 ppm (Rice [1]; Table VII): 11.4%
Percent reduction in rice plant height vs formulation blank at 1000 ppm (Rice [1]; side-by-side, Table XVI): 10%
Percent reduction in rice plant height vs formulation blank at 4000 ppm (Rice [1]; Table VII): 21.2%
Percent reduction in rice plant height vs formulation blank at 4000 ppm (Rice [1]; side-by-side, Table XVI): 10%
Retardation score (1-3) with greening (G), apical damage (A), tillering/side shooting (T) (Vines): 1GT
height reduction vs blank at 1000 ppm (Spring Barley; Table VIII): 7%
height reduction vs blank at 1000 ppm (Spring Barley; side-by-side, Table XV): 9%
height reduction vs blank at 4000 ppm (Spring Barley; Table VIII): 22.6%
height reduction vs blank at 4000 ppm (Spring Barley; side-by-side, Table XV): 11%
range of activity / superiority in comparison with EP 0052424 compounds ([2]; Tables X and XI, across screen comparison): lower range of activity than the rest of the preferred class
Total Retardation expressed as a percentage of the total retardation caused by paclobutrazol [2]: 28.1 % of paclobutrazol
T = Tillering or side shooting (Rice [3]; side-by-side, Table XIII): 2 (31-60%)
percent reduction in plant height vs formulation blank at 1000 ppm (Apples; side-by-side, Table XVII): 2%
percent reduction in plant height vs formulation blank at 4000 ppm (Apples; Table IX): 31.5%
percent reduction in plant height vs formulation blank at 4000 ppm (Apples; side-by-side, Table XVII): 24%
Retardation score (1-3) with greening (G), apical damage (A), tillering/side shooting (T) (Agrostis tenius): 1 (10-30% retardation)
Retardation score (1-3) with greening (G), apical damage (A), tillering/side shooting (T) (Wheat [4]): 2 (21-60% retardation)
Retardation score (1-3) with greening (G), apical damage (A), tillering/side shooting (T) (Soya): 2G
Retardation score (1-3) with greening (G), apical damage (A), tillering/side shooting (T) (Lettuce): 1 (10-30% retardation)
Retardation score (1-3) with greening (G), apical damage (A), tillering/side shooting (T) (Cynosurus cristatus): 2 (21-60% retardation)
G = Greening effect (Wheat [5]; side-by-side, Table XIII): 2 (31-60%)
T = Tillering or side shooting (Wheat [5]; side-by-side, Table XIII): 2 (31-60%)

CCC(C)CC#CC(O)(Cn1cncn1)C(C)(C)C (stereo not drawn) [Compound 10, 2,2-dimethyl-3-hydroxy-3-(4-methyl-hex-1-yne-1-yl)-4-(1,2,4-triazol-1-yl)-butane]
Percent reduction in rice plant height vs formulation blank at 1000 ppm (Rice [1]; Table VII): 20.7%
Percent reduction in rice plant height vs formulation blank at 4000 ppm (Rice [1]; Table VII): 38.2%
height reduction vs blank at 1000 ppm (Spring Barley; Table VIII): 20.2%
height reduction vs blank at 4000 ppm (Spring Barley; Table VIII): 72.4%
Total Retardation expressed as a percentage of the total retardation caused by paclobutrazol [2]: 47.8 % of paclobutrazol
percent reduction in plant height vs formulation blank at 1000 ppm (Apples; Table IX): 9.8%
percent reduction in plant height vs formulation blank at 4000 ppm (Apples; Table IX): 27.1%
Retardation score (1-3) with greening (G), apical damage (A), tillering/side shooting (T) (Agrostis tenius): 1 (10-30% retardation)
Retardation score (1-3) with greening (G), apical damage (A), tillering/side shooting (T) (Tomato): 1G
Retardation score (1-3) with greening (G), apical damage (A), tillering/side shooting (T) (Barley [6]): 2GT
Retardation score (1-3) with greening (G), apical damage (A), tillering/side shooting (T) (Wheat [4]): 2GT
Retardation score (1-3) with greening (G), apical damage (A), tillering/side shooting (T) (Dacrylis glomerata): 1 (10-30% retardation)
Retardation score (1-3) with greening (G), apical damage (A), tillering/side shooting (T) (Soya): 2GA
Retardation score (1-3) with greening (G), apical damage (A), tillering/side shooting (T) (Cynosurus cristatus): 2 (21-60% retardation)

CC(C)(C)C(O)(C#CCCCCl)Cn1cncn1 (stereo not drawn) [Compound 13]
Percent reduction in rice plant height vs formulation blank at 1000 ppm (Rice [1]; Table VII): 6%
Percent reduction in rice plant height vs formulation blank at 4000 ppm (Rice [1]; Table VII): 5.2%
height reduction vs blank at 1000 ppm (Spring Barley; Table VIII): 17%
height reduction vs blank at 4000 ppm (Spring Barley; Table VIII): 41%
Total Retardation expressed as a percentage of the total retardation caused by paclobutrazol [2]: 83.3 % of paclobutrazol
I = Interligular or internodal length reduction (Rice [3]; 2-6 weeks, Table V): 2 (31-60%)
R = Retardation (Rice [3]; 2-6 weeks, Table V): 2 (31-60%)
T = Tillering or side shooting (Rice [3]; 2-6 weeks, Table V): 1 (10-30%)
percent reduction in plant height vs formulation blank at 1000 ppm (Apples; Table IX): 2.8%
percent reduction in plant height vs formulation blank at 4000 ppm (Apples; Table IX): 9.2%
I = Interligular or internodal length reduction (Barley [7]): 2 (31-60%)
I = Interligular or internodal length reduction (Maize): 1 (10-30%)
R = Retardation (Maize): 1 (10-30%)
G = Greening effect (Wheat [5]; 2-6 weeks, Table V): 1 (10-30%)
T = Tillering or side shooting (Wheat [5]; 2-6 weeks, Table V): 1 (10-30%)
